Laboratory results: US10323041B2, “Bicyclic derivatives, a process for their preparation and pharmaceutical compositions containing them” (LES LABORATOIRES SERVIER, priority 2015, dated 2019)

Legend:
Mcl-1 protein = Mcl-1 protein (Homo sapiens, UniProt Q07820); experiment: Inhibition of Mcl-1 by the fluorescence polarisation technique; assay type: binding; details: for IC50: Method 1 (not underlined) or Method 2 (underlined), underlining not visible, first value where cell prints two, read-out: IC50 (M) Mcl-1 FP; for percentage fluorescence polarization inhibition: partial inhibitors
Method: The relative binding potency of each compound was determined via fluorescence Polarisation (FP). The method utilised a Fluorescein labelled ligand Fluorescein-βAla-Ahx-[A-REIGAQLRRMADDLNAQY (SEQ ID NO: 1)]-OH; mw 2,765) which binds to the Mcl-1 protein (such that corresponds to the UniProtKB® primary accession number: Q07820) leading to an increased anisotropy measured in milli-polarisation (mP) units using a reader. The addition of a compound which binds competitively to the same site as the ligand will result in a greater proportion of unbound ligand in the system indicated by a decrease in mP units.
Method 1: An 11 point serial dilution of each compound was prepared in DMSO and 2 μl transferred into flat bottomed, low binding, 384-well plate (final DMSO concentration 5%). 38 μl of buffer (10 mM 4-(2-hydroxyethyl)-1-piperazineethanesulfonic acid [HEPES], 150 mM NaCl, 0.05% Tween 20, pH 7.4), containing the Fluorescein labelled ligand (final concentration 1 nM) and Mcl-1 protein (final concentration 5 nM) was then added.
(§1) Assay plates were incubated ˜2 hours at room temperature before FP was measured on a […] Synergy2 reader (Ex. 528 nm, Em. 640 nm, Cut off 510 nm) and mP units calculated. The binding of increasing doses of test compound was expressed as a percentage reduction in mP compared to a window established between ‘5% DMSO only’ and ‘100% inhibition’ controls. 11-point dose response curves were plotted with XL-Fit software using a 4-Parameter Logistic Model (Sigmoidal Dose-Response Model) and the inhibitory concentrations that gave a 50% reduction in mP (IC50) were determined. Results obtained using Method 1 are presented in Table 1 below; IC50 of Mcl-1 inhibition obtained using Method 1 are not underlined.
Method 2: An 11 point serial dilution of each compound was prepared in DMSO and 2 μl transferred into flat bottomed, low binding, 384-well plate (final DMSO concentration 5%). 38 μl of buffer (20 mM Na2HPO4, 1 mM EDTA, 50 mM NaCl, pH 7.4), containing the Fluorescein labelled ligand (final concentration 10 nM) and Mcl-1 protein (final concentration 10 nM) was then added.
as §1, with “inhibition’ controls (50 μM unlabelled ligand).” for “inhibition’ controls.”, “Method 2” for “Method 1”, “are” for “are not”

[1] = system: H929 multiple myeloma tumour line; experiment: In vitro cytotoxicity, Microculture Tetrazolium Assay on H929 cells; assay type: cell-based; details: Homo sapiens, NCI-H929, exposed for 48 hours, cell viability, read-out: IC50 (M) MTT H929
Method: The cytotoxicity studies were carried out on the H929 multiple myeloma tumour line.
The cells are distributed onto microplates and exposed to the test compounds for 48 hours. The cell viability is then quantified by a colorimetric assay, the Microculture Tetrazolium Assay (Cancer Res., 1987, 47, 939-942).

Mcl-1 protein, sequence (Q07820 whole entry): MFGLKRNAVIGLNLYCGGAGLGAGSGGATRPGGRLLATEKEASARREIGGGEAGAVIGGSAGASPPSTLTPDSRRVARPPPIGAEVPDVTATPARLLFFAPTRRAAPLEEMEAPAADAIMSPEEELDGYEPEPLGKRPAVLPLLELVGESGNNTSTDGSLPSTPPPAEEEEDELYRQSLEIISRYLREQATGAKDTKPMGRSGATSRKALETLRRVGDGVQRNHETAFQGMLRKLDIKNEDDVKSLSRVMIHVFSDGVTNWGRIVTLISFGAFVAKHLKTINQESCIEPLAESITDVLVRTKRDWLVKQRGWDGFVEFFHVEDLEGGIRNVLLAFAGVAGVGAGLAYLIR

Row | SMILES | IC50 (Mcl-1 protein) [M] | IC50 [1] [M] | percentage fluorescence polarization inhibition (Mcl-1 protein; @ 10 μM test compound) [% @ 10 μM] | percentage fluorescence polarization inhibition (Mcl-1 protein; @ 50 μM test compound, 50 µM) [% @ 50 μM]
1 | COc1ccccc1-c1nccc(COc2ccccc2CC(Oc2cccc3oc(-c4ccc(F)cc4)c(-c4ccc(OCCN5CCN(C)CC5)c(Cl)c4C)c23)C(=O)O)n1 (single isomer, unassigned) [Example 64] | 7.4e-09 | 4.71e-08 |  | 
2 | COc1ccccc1-c1nccc(COc2ccccc2CC(Oc2nccc3nc(-c4ccc(F)cc4)c(-c4ccc(OCCN5CCN(C)CC5)c(Cl)c4C)n23)C(=O)O)n1 (stereo not drawn) [Example 97b, 2-{[(3Ra)-3-{3-chloro-2-methyl-4-[2-(4-methylpiperazin-1-yl)ethoxy]phenyl}-2-(4-fluorophenyl)imidazo[1,2-c]pyrimidin-5-yl]oxy}-3-(2-{[2-(2-methoxyphenyl)pyrimidin-4-yl]methoxy}phenyl)propanoic acid] | 4.1e-08 | 4.59e-07 |  | 
3 | COc1ccccc1CC(Oc1cccc2cc(-c3ccc(F)o3)n(-c3ccc(OCCN4CCN(C)CC4)c(Cl)c3C)c12)C(=O)O [Example 60, (2R)-2-{[(1Sa)-1-{3-chloro-2-methyl-4-[2-(4-methylpiperazin-1-yl)ethoxy]phenyl}-2-(5-fluorofuran-2-yl)-1H-indol-7-yl]oxy}-3-(2-methoxyphenyl)propanoic acid] | 1.9e-08 | 5.68e-07 |  | 
4 | COc1ccccc1C[C@@H](Oc1ncnc2oc(-c3ccc(F)cc3)c(-c3ccc(OCCN4CCN(C)CC4)c(Cl)c3C)c12)C(=O)O [Example 3, (2R)-2-{[5-{3-chloro-2-methyl-4-[2-(4-methylpiperazin-1-yl)ethoxy]phenyl}-6-(4-fluorophenyl)furo[2,3-d]pyrimidin-4-yl]oxy}-3-(2-methoxyphenyl) propanoic acid] | 1.7e-08 | 3.64e-07 |  | 
5 | COc1ccccc1-c1nccc(COc2ccccc2CC(Oc2ccnc3sc(-c4ccc(F)cc4)c(-c4ccc(OCCN5CCN(C)CC5)c(Cl)c4C)c23)C(=O)OC(C)OC(=O)N(C)C)n1 [Example 75, 1-[(dimethylcarbamoyl)oxy]ethyl (2R)-2-{[(3Sa)-3-{3-chloro-2-methyl-4-[2-(4-methylpiperazin-1-yl)ethoxy]phenyl}-2-(4-fluorophenyl)thieno[2,3-b]pyridin-4-yl]oxy}-3-(2-{[2-(2-methoxyphenyl)pyrimidin-4-yl]methoxy}phenyl)propanoate] | 5.61e-07 | 7.55e-08 |  | 
6 | COc1ccccc1-c1nccc(COc2ccccc2CC(Oc2cccc3c2c(-c2ccc(OCCN4CCN(C)CC4)c(Cl)c2C)c(-c2ccc(F)cc2)n3C)C(=O)O)n1 (single isomer, unassigned) [Example 69] | 2.4e-08 | 1.04e-07 |  | 
7 | COc1ccccc1CC(Oc1cccc2cc(-c3ccco3)n(-c3ccc(OCCN4CCN(C)CC4)c(Cl)c3C)c12)C(=O)O [Example 59, (2R)-2-{[(1Sa)-1-{3-chloro-2-methyl-4-[2-(4-methylpiperazin-1-yl)ethoxy]phenyl}-2-(furan-2-yl)-1H-indol-7-yl]oxy}-3-(2-methoxyphenyl)propanoic acid] | 3.6e-08 | 1.24e-06 |  | 
8 | COc1ccccc1CC(Nc1ncnc2oc(-c3ccc(F)cc3)c(-c3ccc(OCCN4CCN(C)CC4)c(Cl)c3C)c12)C(=O)O [Example 7, N-[(5Sa)-5-{3-chloro-2-methyl-4-[2-(4-methylpiperazin-1-yl)ethoxy]phenyl}-6-(4-fluorophenyl)furo[2,3-d]pyrimidin-4-yl]-2-methoxy-D-phenylalanine] | 1.1e-07 | 7.57e-07 |  | 
9 | Cc1c(-c2c(-c3ccc(F)cc3)oc3ncnc(O[C@H](Cc4ccccc4OCc4cnccn4)C(=O)O)c23)ccc(OCCN2CCN(C)CC2)c1Cl [Example 4, (2R)-2-{[5-{3-chloro-2-methyl-4-[2-(4-methylpiperazin-1-yl)ethoxy]phenyl}-6-(4-fluorophenyl)furo[2,3-d]pyrimidin-4-yl]oxy}-3-[2-(pyrazin-2-ylmethoxy)phenyl]propanoic acid] | 2.9e-08 | 3.29e-07 |  | 
10 | Cc1c(-c2c(-c3ccc(Cl)o3)oc3ncnc(O[C@H](Cc4ccccc4OCc4cnccn4)C(=O)O)c23)ccc(OCCN2CCN(C)CC2)c1Cl [Example 5, (2R)-2-{[6-(5-chlorofuran-2-yl)-5-{3-chloro-2-methyl-4-[2-(4-methylpiperazin-1-yl)ethoxy]phenyl}furo[2,3-d]pyrimidin-4-yl]oxy}-3-[2-(pyrazin-2-ylmethoxy)phenyl]propanoic acid] | 1.5e-08 | 6.19e-07 |  | 
11 | CCOC(=O)OC(C)OC(=O)C(Cc1ccccc1OCc1ccnc(-c2ccccc2OC)n1)Oc1ccnc2sc(-c3ccc(F)cc3)c(-c3ccc(OCCN4CCN(C)CC4)c(Cl)c3C)c12 [Example 76, 1-[(ethoxycarbonyl)oxy]ethyl (2R)-2-{[(3Sa)-3-{3-chloro-2-methyl-4-[2-(4-methylpiperazin-1-yl)ethoxy]phenyl}-2-(4-fluorophenyl)thieno[2,3-b]pyridin-4-yl]oxy}-3-(2-{[2-(2-methoxyphenyl)pyrimidin-4-yl]methoxy}phenyl)propanoate] | 1.34e-07 | 1.01e-08 |  | 
12 | Cc1c(-c2cn(Cc3ccccc3)c3ncnc(O[C@H](Cc4ccccc4)C(=O)O)c23)ccc(OCCN2CCN(C)CC2)c1Cl [Example 45, (2R)-2-[(7-benzyl-5-{3-chloro-2-methyl-4-[2-(4-methylpiperazin-1-yl)ethoxy]phenyl}-7H-pyrrolo[2,3-d]pyrimidin-4-yl)oxy]-3-phenylpropanoic acid] | 1.8e-06 |  |  | 
13 | COc1ccccc1C[C@@H](Oc1cccc2cc(-c3ccc(F)cc3)n(-c3ccc(OCCN4CCN(C)CC4)c(Cl)c3C)c12)C(=O)O [Example 55] |  |  | 55.35 | 
14 | C=CCn1c(CC)c(-c2cccc(Cl)c2C)c2c(NC(Cc3ccccc3)C(=O)O)ncnc21 (single isomer, unassigned) [Example 25, N-[(5Sa)-5-(3-chloro-2-methylphenyl)-6-ethyl-7-(prop-2-en-1-yl)-7H-pyrrolo[2,3-d]pyrimidin-4-yl]-D-phenylalanine] | 9.1e-06 |  |  | 
15 | CCc1c(-c2cccc(Cl)c2C)c2c(N[C@H](Cc3ccccc3)C(=O)O)ncnc2n1C(C)C [Example 39, N-[(5Sa)-5-(3-chloro-2-methylphenyl)-6-ethyl-7-(propan-2-yl)-7H-pyrrolo[2,3-d]pyrimidin-4-yl]-D-phenylalanine] |  |  |  | 77.75
16 | CCc1c(-c2cccc(Cl)c2C)c2c(NC(Cc3ccccc3)C(=O)O)ncnc2n1Cc1ccccc1 (single isomer, unassigned) [Example 37, N-[7-benzyl-(5Sa)-5-(3-chloro-2-methylphenyl)-6-ethyl-7H-pyrrolo[2,3-d]pyrimidin-4-yl]-D-phenylalanine] | 5.3e-07 |  |  | 
17 | CCc1c(-c2cccc(Cl)c2C)c2c(NC(Cc3ccccc3)C(=O)O)ncnc2n1Cc1cccc2ccccc12 (single isomer, unassigned) [Example 33, N-[(5Sa)-5-(3-chloro-2-methylphenyl)-6-ethyl-7-(naphthalen-1-ylmethyl)-7H-pyrrolo[2,3-d]pyrimidin-4-yl]-D-phenylalanine] | 2.6e-07 |  |  | 
18 | Cc1c(-c2c(-c3ccc(F)cc3)oc3cccc(OC(Cc4ccccc4OCC(F)(F)F)C(=O)O)c23)ccc(OCCN2CCN(C)CC2)c1Cl [Example 65, (2R)-2-{[(3Sa)-3-{3-chloro-2-methyl-4-[2-(4-methylpiperazin-1-yl)ethoxy]phenyl}-2-(4-fluorophenyl)-1-benzofuran-4-yl]oxy}-3-[2-(2,2,2-trifluoroethoxy)phenyl]propanoic acid] | 1e-06 |  |  | 
19 | COc1ccccc1CC(Oc1cccc2cc(-c3ccc(F)cc3)n(-c3ccc(OCCN4CCN(C)CC4)c(Cl)c3C)c12)C(=O)O (stereo not drawn) [Example 56] | 4.7e-08 |  |  | 
